Reference: patent US9987259B2 (priority 2011, dated 2018)

Target: human α7 nAChR (Homo sapiens (Human), UniProt P36544)
Experiment: cell-based
Settings: not given

human α7 nAChR, sequence (P36544 23-502 limits assumed): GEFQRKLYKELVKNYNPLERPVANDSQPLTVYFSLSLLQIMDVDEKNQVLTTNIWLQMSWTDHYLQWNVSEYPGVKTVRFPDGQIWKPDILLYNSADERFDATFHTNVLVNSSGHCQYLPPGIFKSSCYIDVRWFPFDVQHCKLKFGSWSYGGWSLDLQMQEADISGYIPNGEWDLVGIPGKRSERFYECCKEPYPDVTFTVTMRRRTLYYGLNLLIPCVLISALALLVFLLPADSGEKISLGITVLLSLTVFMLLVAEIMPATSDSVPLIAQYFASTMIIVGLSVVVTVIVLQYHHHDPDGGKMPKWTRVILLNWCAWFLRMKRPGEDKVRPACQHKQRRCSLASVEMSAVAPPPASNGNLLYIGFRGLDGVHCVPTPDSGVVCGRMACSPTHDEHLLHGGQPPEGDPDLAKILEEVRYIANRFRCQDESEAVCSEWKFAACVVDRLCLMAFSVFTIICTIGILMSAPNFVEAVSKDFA

SMILES	EC50 [nM]
O=C(NC1CN2CCC1CC2)c1ccc(=O)n(-c2nc3ccccc3s2)c1 (centres unmarked) [Example 33, N-(1-azabicyclo[2.2.2]octan-3-yl)-1-(1,3-benzothiazole-2-yl)-6-oxo-3-pyridinecarboxamide]	100 to 500
CC(C)c1cnc(-n2cc(C(=O)N[C@@H]3CN4CCC3CC4)ccc2=O)s1 [Example 19, N-[(3S)-1-azabicyclo[2.2.2]octan-3-yl)-6-oxo-1-(5-propan-2-yl-2-thiazolyl)-3-pyridinecarboxamide]	100 to 500
O=C(NC1CN2CCC1CC2)c1ccc(=O)n(-c2ncc(Cc3ccccc3)s2)c1 (centres unmarked) [Example 29]	100 to 500
O=C(NC1CN2CCC1CC2)c1ccc(=O)n(-c2ccc(-c3ccccc3)cn2)c1 (centres unmarked) [Example 7, N-(1-azabicyclo[2.2.2]octan-3-yl)-6-oxo-1-(5-phenyl-2-pyridine-1-yl)-3-pyridinecarboxamide]	100 to 500
Cc1cnc(-n2cc(C(=O)N[C@@H]3CN4CCC3CC4)ccc2=O)s1 [Example 12, N-[(3S)-1-azabicyclo[2.2.2]octan-3-yl]-1-(5-methyl-2-thiazolyl)-6-oxo-3-pyridinecarboxamide]	500 to 1000
CC(C)(C)c1cnc(-n2cc(C(=O)NC3CN4CCC3CC4)ccc2=O)s1 (centres unmarked) [Example 20, N-(1-azabicyclo[2.2.2]octan-3-yl)-1-(5-tert-butyl-2-thiazolyl)-6-oxo-3-pyridinecarboxamide]	100 to 500
O=C(N[C@@H]1CN2CCC1CC2)c1ccc(=O)n(-c2nccs2)c1 [Example 3, N-[(3S)-1-azabicyclo[2.2.2]octan-3-yl)-6-oxo-1-(2-thiazolyl)-3-pyridinecarboxamide]	100 to 500
CCc1cnc(-n2cc(C(=O)N[C@@H]3CN4CCC3CC4)ccc2=O)s1 [Example 15, N-[(3S)-1-azabicyclo[2.2.2]octan-3-yl]-1-(5-ethyl-2-thiazolyl)-6-oxo-3-pyridinecarboxamide]	100 to 500
CCc1cnc(-n2cc(C(=O)NC3CN4CCC3CC4)ccc2=O)s1 (centres unmarked) [Example 13, N-(1-azabicyclo[2.2.2]octan-3-yl)-1-(5-ethyl-2-thiazolyl)-6-oxo-3-pyridinecarboxamide]	100 to 500
O=C(NC1CN2CCC1CC2)c1ccc(=O)n(-c2ncc(C3CCCC3)s2)c1 (centres unmarked) [Example 23, N-(1-azabicyclo[2.2.2]octan-3-yl)-1-(5-cyclopentyl-2-thiazolyl)-6-oxo-3-pyridinecarboxamide]	100 to 500
O=C(NC1CN2CCC1CC2)c1ccc(=O)n(-c2ncc(-c3ccccc3)s2)c1 (centres unmarked) [Example 25, N-(1-azabicyclo[2.2.2]octan-3-yl)-1-(5-phenyl-2-thiazolyl)-6-oxo-3-pyridinecarboxamide]	500 to 1000
O=C(N[C@H]1CN2CCC1CC2)c1ccc(=O)n(-c2ncc(Cl)s2)c1 [Example 27, N-[(3R)-1-azabicyclo[2.2.2]octan-3-yl]-1-(5-chloro-2-thiazolyl)-6-oxo-3-pyridinecarboxamide]	100 to 500
O=C(NC1CN2CCC1CC2)c1ccc(=O)n(-c2nccs2)c1 (centres unmarked) [Example 1, N-(1-azabicyclo[2.2.2]octan-3-yl)-6-oxo-1-(2-thiazolyl)-3-pyridinecarboxamide]	100 to 500
O=C(NC1CN2CCC1CC2)c1ccc(=O)n(-c2ncc(C3CCCCC3)s2)c1 (centres unmarked) [Example 24, N-(1-azabicyclo[2.2.2]octan-3-yl)-1-(5-cyclohexyl-2-thiazolyl)-6-oxo-3-pyridinecarboxamide]	100 to 500
Cc1cnc(-n2cc(C(=O)NC3CN4CCC3CC4)ccc2=O)s1 (centres unmarked) [Example 10, N-(1-azabicyclo[2.2.2]octan-3-yl)-1-(5-methyl-2-thiazolyl)-6-oxo-3-pyridinecarboxamide]	100 to 500
CC(C)(C)c1cnc(-n2cc(C(=O)N[C@@H]3CN4CCC3CC4)ccc2=O)s1 [Example 22, N-[(3S)-1-azabicyclo[2.2.2]octan-3-yl]-1-[5-tert-butyl-2-thiazolyl]-6-oxo-3-pyridinecarboxamide]	500 to 1000
O=C(N[C@H]1CN2CCC1CC2)c1ccc(=O)n(-c2nccs2)c1 [Example 2, N-[(3R)-1-azabicyclo[2.2.2]octan-3-yl)-6-oxo-1-(2-thiazolyl)-3-pyridinecarboxamide]	100 to 500
CC(C)(C)c1cnc(-n2cc(C(=O)N[C@H]3CN4CCC3CC4)ccc2=O)s1 [Example 21, N-[(3R)-1-azabicyclo[2.2.2]octan-3-yl]-1-[5-tert-butyl-2-thiazolyl]-6-oxo-3-pyridinecarboxamide]	100 to 500
CC(C)c1cnc(-n2cc(C(=O)NC3CN4CCC3CC4)ccc2=O)s1 (centres unmarked) [Example 17, N-(1-azabicyclo[2.2.2]octan-3-yl)-6-oxo-1-(5-propan-2-yl-2-thiazolyl)-3-pyridinecarboxamide]	100 to 500
CCCc1cnc(-n2cc(C(=O)NC3CN4CCC3CC4)ccc2=O)s1 (centres unmarked) [Example 16, N-(1-azabicyclo[2.2.2]octan-3-yl)-6-oxo-1-(5-propyl-2-thiazolyl)-3-pyridinecarboxamide]	100 to 500

Same assay, conditions: HEK293T/17 cells transfected with human α7 nAChR and RIC3; with PNU-120596; fluorescence relative to 1 μM epibatidine; read-out: EC50 of human α7 nAChR

SMILES	EC50 [nM]
O=C(N[C@@H]1CN2CCC1CC2)c1ccc(=O)n(-c2ncc(Cl)s2)c1 [Example 28, N-[(3S)-1-azabicyclo[2.2.2]octan-3-yl]-1-(5-chloro-2-thiazolyl)-6-oxo-3-pyridinecarboxamide]	> 1000
O=C(NC1CN2CCC1CC2)c1ccc(=O)n(-c2ccc(Cl)cn2)c1 (centres unmarked) [Example 6, N-(1-azabicyclo[2.2.2]octan-3-yl)-1-(5-chloro-2-pyridinyl)-6-oxo-3-pyridinecarboxamide]	> 1000
O=C(NC1CN2CCC1CC2)c1ccc(=O)n(-c2cc(-c3ccccc3)no2)c1 (centres unmarked) [Example 9, N-(1-azabicyclo[2.2.2]octan-3-yl)-6-oxo-1-[3-phenyl-5-isoxazolyl)-3-pyridinecarboxamide]	> 1000
CCc1cnc(-n2cc(C(=O)N[C@H]3CN4CCC3CC4)ccc2=O)s1 [Example 14, N-[(3R)-1-azabicyclo[2.2.2]octan-3-yl]-1-(5-ethyl-2-thiazolyl)-6-oxo-3-pyridinecarboxamide]	< 100
CC(C)c1cnc(-n2cc(C(=O)N[C@H]3CN4CCC3CC4)ccc2=O)s1 [Example 18, N-[(3R)-1-azabicyclo[2.2.2]octan-3-yl)-6-oxo-1-(5-propan-2-yl-2-thiazolyl)-3-pyridinecarboxamide]	< 100
Cc1cnc(-n2cc(C(=O)N[C@H]3CN4CCC3CC4)ccc2=O)s1 [Example 11, N-[(3R)-1-azabicyclo[2.2.2]octan-3-yl]-1-(5-methyl-2-thiazolyl)-6-oxo-3-pyridinecarboxamide]	< 100
Cc1csc(-n2cc(C(=O)NC3CN4CCC3CC4)ccc2=O)n1 (centres unmarked) [Example 30, N-(1-azabicyclo[2.2.2]octan-3-yl)-1-(4-methyl-2-thiazolyl)-6-oxo-3-pyridinecarboxamide]	> 1000
Cc1nnc(-n2cc(C(=O)NC3CN4CCC3CC4)ccc2=O)s1 (centres unmarked) [Example 42, N-(1-azabicyclo[2.2.2]octan-3-yl)-1-[5-methyl-1,3,4-thiadiazole-2-yl)-6-oxo-3-pyridinecarboxamide]	> 1000
O=C(NC1CN2CCC1CC2)c1ccc(=O)n(-c2ncc(Cl)s2)c1 (centres unmarked) [Example 26, N-(1-azabicyclo[2.2.2]octan-3-yl)-1-(5-chloro-2-thiazolyl)-6-oxo-3-pyridinecarboxamide]	< 100
